Assay results from PubChem BioAssay (NCI).
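Interpolation was linear, between the two tested concentrations surrounding the appropriate level; five concentrations were tested over 48 hours in 96-well plates. At the GI50, growth is halved. TGI: concentration producing complete growth inhibition.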

Tests used:
Assay in all cases: NCI tumour cell line growth inhibition, 48 h
HOP-92 NSCLC = test system: HOP-92 NSCLC
HCT-116 colon = test system: HCT-116 colon
HOP-62 NSCLC = test system: HOP-62 NSCLC
NCI/ADR-RES ovarian = test system: NCI/ADR-RES ovarian
MDA-MB-435 = test system: MDA-MB-435
U251 CNS = test system: U251 CNS
OVCAR-5 ovarian = test system: OVCAR-5 ovarian
EKVX NSCLC = test system: EKVX NSCLC
K-562 leukemia = test system: K-562 leukemia
HS 578T breast = test system: HS 578T breast

## CC[C@H](Nc1nc(N)nc(C)c1C#N)c1nc2cccc(CN(C)c3ncc(C(=O)NO)cn3)c2c(=O)n1-c1ccccc1
HOP-92 NSCLC
  GI50: 0.204 µM
  TGI: 1.52 µM
HCT-116 colon
  GI50: 0.364 µM
  TGI: 2.92 µM
HOP-62 NSCLC
  GI50: 0.804 µM
  TGI: 4.42 µM
NCI/ADR-RES ovarian
  GI50: 11.4 µM
  TGI: > 50 µM
MDA-MB-435
  GI50: 0.617 µM
  TGI: 2.26 µM
U251 CNS
  GI50: 0.663 µM
  TGI: 2.03 µM
OVCAR-5 ovarian
  GI50: 0.678 µM
  TGI: 3.05 µM
EKVX NSCLC
  GI50: 1.69 µM
  TGI: 16.9 µM
K-562 leukemia
  GI50: 0.39 µM
  TGI: > 50 µM
HS 578T breast
  GI50: 0.474 µM
  TGI: > 11.1 µM

## O=C1c2ccccc2C(=O)N1CC1(C(=O)O)NCCS1(=O)=O (stereo not given)
HOP-92 NSCLC
  TGI: > 100 µM
HCT-116 colon
  TGI: > 100 µM
HOP-62 NSCLC
  TGI: > 100 µM
NCI/ADR-RES ovarian
  TGI: > 100 µM
MDA-MB-435
  TGI: > 100 µM
U251 CNS
  TGI: > 100 µM
OVCAR-5 ovarian
  TGI: > 100 µM
EKVX NSCLC
  TGI: > 100 µM
K-562 leukemia
  TGI: > 100 µM
HS 578T breast
  TGI: > 100 µM

## CSc1nnc(CCSc2ccnc3c(C(F)(F)F)cccc23)o1
HOP-92 NSCLC
  GI50: 18.1 µM
  TGI: > 100 µM
HCT-116 colon
  GI50: 66.5 µM
  TGI: > 100 µM
HOP-62 NSCLC
  GI50: 51.7 µM
  TGI: > 100 µM
NCI/ADR-RES ovarian
  GI50: 72.2 µM
  TGI: > 100 µM
MDA-MB-435
  GI50: > 100 µM
  TGI: > 100 µM
U251 CNS
  GI50: > 100 µM
  TGI: > 100 µM
OVCAR-5 ovarian
  GI50: > 100 µM
  TGI: > 100 µM
EKVX NSCLC
  GI50: 9.21 µM
  TGI: > 100 µM
K-562 leukemia
  GI50: 47.3 µM
  TGI: > 100 µM
HS 578T breast
  GI50: 18 µM
  TGI: 73.2 µM

## c1ccc2nc(Cn3c[n+](Cc4ccc5ccccc5n4)c4ccccc43)ccc2c1
HOP-92 NSCLC
  GI50: 0.93 µM
  TGI: 4.3 µM
HCT-116 colon
  GI50: 2.4 µM
  TGI: 12.2 µM
HOP-62 NSCLC
  GI50: 2.97 µM
  TGI: 13.7 µM
NCI/ADR-RES ovarian
  GI50: > 100 µM
  TGI: > 100 µM
MDA-MB-435
  GI50: 1.63 µM
  TGI: 4.37 µM
U251 CNS
  GI50: 3.08 µM
  TGI: 12.8 µM
OVCAR-5 ovarian
  GI50: 2.43 µM
  TGI: 13.7 µM
EKVX NSCLC
  GI50: 5.7 µM
  TGI: 23.7 µM
K-562 leukemia
  GI50: 1.25 µM
  TGI: 11.8 µM
HS 578T breast
  GI50: 3.19 µM
  TGI: 18.8 µM

## O=c1cc(CNc2cc(F)cc(F)c2)c2ccc(I)cc2[nH]1
HOP-92 NSCLC
  GI50: 1.42 µM
  TGI: > 100 µM
HCT-116 colon
  GI50: 0.492 µM
  TGI: > 100 µM
HOP-62 NSCLC
  GI50: 1.98 µM
  TGI: > 100 µM
NCI/ADR-RES ovarian
  GI50: 0.537 µM
  TGI: > 100 µM
MDA-MB-435
  GI50: 0.108 µM
  TGI: 0.499 µM
U251 CNS
  GI50: 0.574 µM
  TGI: > 100 µM
OVCAR-5 ovarian
  GI50: 16.2 µM
  TGI: > 100 µM
EKVX NSCLC
  GI50: 2.33 µM
  TGI: > 100 µM
K-562 leukemia
  GI50: 0.203 µM
  TGI: > 100 µM
HS 578T breast
  GI50: 0.41 µM
  TGI: > 100 µM

## Cn1c(=O)c2[nH]c(/N=N/N3CCN(CCO)CC3)nc2n(C)c1=O
HOP-92 NSCLC
  TGI: > 100 µM
HCT-116 colon
  TGI: > 100 µM
HOP-62 NSCLC
  TGI: > 100 µM
NCI/ADR-RES ovarian
  TGI: > 100 µM
MDA-MB-435
  TGI: > 100 µM
U251 CNS
  TGI: > 100 µM
OVCAR-5 ovarian
  TGI: > 100 µM
EKVX NSCLC
  TGI: > 100 µM
K-562 leukemia
  TGI: > 100 µM
HS 578T breast
  TGI: > 100 µM

## CC12CCC(=O)C=C1CCC1C2CCC2(C)C(C(=O)Cn3cnc4c(=S)nc[nH]c43)CCC12 (stereo not given)
HOP-92 NSCLC
  TGI: 37.7 µM
HCT-116 colon
  TGI: > 100 µM
HOP-62 NSCLC
  TGI: 47.1 µM
NCI/ADR-RES ovarian
  TGI: > 100 µM
MDA-MB-435
  TGI: 96.4 µM
U251 CNS
  TGI: > 100 µM
OVCAR-5 ovarian
  TGI: > 100 µM
EKVX NSCLC
  TGI: > 100 µM
K-562 leukemia
  TGI: > 100 µM
HS 578T breast
  TGI: > 100 µM
